Where “and” joins values, the source holds several entries; their conditions need not be identical. Equal values may be shown once. Toxic doses and inconclusive results are not listed. No stated cut-off is given here; in the data, active means T/C of 150% or more; inactive means T/C below 125%.
Tested on: L1210 leukemia ip in BDF1 mice, survival T/C
Experiment: NCI In Vivo Anticancer Drug Screen. Data for tumor model L1210 Leukemia (intraperitoneal) in B6D2F1 (BDF1) mice
Details: endpoint: mean survival time, higher = longer survival
Summary of the method: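 Survival endpoint. Drug-treated group vs vehicle group, expressed as T divided by C. Tumor passaged by transplantation.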

[1] = dose: 100.0 mg/kg/injection, schedule: Q01DX009 (ip), vehicle: other
[2] = dose: 200.0 mg/kg/injection, schedule: Q01DX009 (ip), vehicle: other
[3] = dose: 400.0 mg/kg/injection, schedule: Q01DX009 (ip), vehicle: other
[4] = dose: 100.0 mg/kg/injection, schedule: Q01DX009 (ip), vehicle: saline with Tween-80
[5] = dose: 100.0 mg/kg/injection, schedule: Q04DX003 (ip), vehicle: saline with Tween-80
[6] = dose: 200.0 mg/kg/injection, schedule: Q01DX009 (ip), vehicle: saline with Tween-80
[7] = dose: 200.0 mg/kg/injection, schedule: Q04DX003 (ip), vehicle: saline with Tween-80
[8] = dose: 400.0 mg/kg/injection, schedule: Q04DX003 (ip), vehicle: saline with Tween-80
[9] = dose: 100.0 mg/kg/injection, schedule: Q04DX003 (ip), vehicle: Klucel (hydroxypropylcellulose) (HPC)
[10] = dose: 200.0 mg/kg/injection, schedule: Q04DX003 (ip), vehicle: Klucel (hydroxypropylcellulose) (HPC)
[11] = dose: 100.0 mg/kg/injection, schedule: Q01DX001 (ip), vehicle: saline
[12] = dose: 200.0 mg/kg/injection, schedule: Q01DX001 (ip), vehicle: saline
[13] = dose: 100.0 mg/kg/injection, schedule: Q01DX009 (ip), vehicle: saline
[14] = dose: 100.0 mg/kg/injection, schedule: Q04DX003 (ip), vehicle: saline
[15] = dose: 200.0 mg/kg/injection, schedule: Q01DX009 (ip), vehicle: saline
[16] = dose: 200.0 mg/kg/injection, schedule: Q04DX003 (ip), vehicle: saline
[17] = dose: 400.0 mg/kg/injection, schedule: Q01DX009 (ip), vehicle: saline
[18] = dose: 400.0 mg/kg/injection, schedule: Q04DX003 (ip), vehicle: saline
[19] = dose: 25.0 mg/kg/injection, schedule: Q01DX009 (ip), vehicle: Klucel (hydroxypropylcellulose) (HPC)

Measured: T/C

c1ccc2c(c1)C1c3cccc[n+]3C2C2C1CC1C3c4ccccc4C(C12)[n+]1ccccc13 (stereo not drawn)
inactive: dose: 1.56 mg/kg/injection, schedule: Q04DX003 (ip), vehicle: saline 100 % of control | dose: 3.12 mg/kg/injection, schedule: Q01DX009 (ip), vehicle: saline 111 % of control | dose: 3.12 mg/kg/injection, schedule: Q04DX003 (ip), vehicle: saline 96 % of control | dose: 6.25 mg/kg/injection, schedule: Q01DX009 (ip), vehicle: saline 100 % of control and 88 % of control | dose: 6.25 mg/kg/injection, schedule: Q04DX003 (ip), vehicle: saline 95 % of control | dose: 12.5 mg/kg/injection, schedule: Q01DX009 (ip), vehicle: saline 100 % of control and 102 % of control

CSc1ccc(NC(=O)Nc2ccccc2C(F)(F)F)cc1
inactive: [1] 96 % of control | [2] 96 % of control | [3] 95 % of control

CCC[As](=O)(O)Cc1ccccc1C
inactive: dose: 0.78 mg/kg/injection, schedule: Q01DX009 (ip), vehicle: saline with Tween-80 95 % of control | dose: 1.56 mg/kg/injection, schedule: Q01DX009 (ip), vehicle: saline with Tween-80 97 % of control | dose: 1.56 mg/kg/injection, schedule: Q04DX003 (ip), vehicle: saline with Tween-80 93 % of control | dose: 3.12 mg/kg/injection, schedule: Q01DX009 (ip), vehicle: saline with Tween-80 97 % of control | dose: 3.12 mg/kg/injection, schedule: Q04DX002 (ip), vehicle: saline with Tween-80 103 % of control | dose: 3.12 mg/kg/injection, schedule: Q04DX003 (ip), vehicle: saline with Tween-80 97 % of control | dose: 6.25 mg/kg/injection, schedule: Q01DX001 (ip), vehicle: saline with Tween-80 106 % of control | dose: 6.25 mg/kg/injection, schedule: Q01DX009 (ip), vehicle: saline with Tween-80 101 % of control and 103 % of control | dose: 6.25 mg/kg/injection, schedule: Q04DX003 (ip), vehicle: saline with Tween-80 95 % of control | dose: 12.5 mg/kg/injection, schedule: Q01DX001 (ip), vehicle: saline with Tween-80 109 % of control | dose: 12.5 mg/kg/injection, schedule: Q04DX002 (ip), vehicle: saline with Tween-80 90 % of control | dose: 12.5 mg/kg/injection, schedule: Q04DX003 (ip), vehicle: saline with Tween-80 103 % of control

COc1ccc(OC)c2[nH]c(-c3ccccc3)cc12
inactive: dose: 100.0 mg/kg/injection, schedule: Q04DX002 (ip), vehicle: Klucel (hydroxypropylcellulose) (HPC) 96 % of control | dose: 200.0 mg/kg/injection, schedule: Q04DX002 (ip), vehicle: Klucel (hydroxypropylcellulose) (HPC) 105 % of control | dose: 400.0 mg/kg/injection, schedule: Q04DX002 (ip), vehicle: Klucel (hydroxypropylcellulose) (HPC) 93 % of control

CC1CCCC(CN=Cc2cc([N+](=O)[O-])ccc2O)[N-]1.CC1CCCC(CN=Cc2cc([N+](=O)[O-])ccc2O)[N-]1.[Ni+2] (stereo not drawn)
inactive: [4] 86 % of control | [5] 95 % of control | [6] 86 % of control | [7] 95 % of control | [8] 86 % of control

CCOC(=O)C1C2OC(=O)C(C(=O)C2P2(=O)OCCN2CCCl)C1c1ccc(OC(C)=O)cc1 (stereo not drawn)
inactive: [9] 108 % of control | [10] 95 % of control | dose: 400.0 mg/kg/injection, schedule: Q04DX003 (ip), vehicle: Klucel (hydroxypropylcellulose) (HPC) 108 % of control

CC(=O)OC1=C(CC(C)C)C(=O)c2ccccc2C1=O
inactive: [11] 104 % of control | [12] 107 % of control | dose: 400.0 mg/kg/injection, schedule: Q01DX001 (ip), vehicle: saline 103 % of control

CCCC(O)(CCC)C(=O)O
inactive: [11] 94 % of control | [12] 94 % of control

C#CCOCC1CN(C)C(=O)O1 (stereo not drawn)
inactive: dose: 25.0 mg/kg/injection, schedule: Q01DX009 (ip), vehicle: saline 90 % of control | dose: 50.0 mg/kg/injection, schedule: Q01DX009 (ip), vehicle: saline 110 % of control | dose: 50.0 mg/kg/injection, schedule: Q04DX003 (ip), vehicle: saline 103 % of control | [13] 100 % of control | [14] 106 % of control | [15] 117 % of control | [16] 103 % of control | [17] 100 % of control | [18] 92 % of control

CC(C)(C)C12N=NCC1C(=O)C1(C(C)(C)C)OC1C2=O (stereo not drawn)
inactive: dose: 100.0 mg/kg/injection, schedule: Q01DX001 (ip), vehicle: saline with Tween-80 102 % of control | dose: 200.0 mg/kg/injection, schedule: Q01DX001 (ip), vehicle: saline with Tween-80 97 % of control | dose: 400.0 mg/kg/injection, schedule: Q01DX001 (ip), vehicle: saline with Tween-80 94 % of control

CN1CCC2(C1)C1CC3CC(C1)CC2C3 (stereo not drawn)
inactive: dose: 75.0 mg/kg/injection, schedule: Q01DX001 (ip), vehicle: saline 97 % of control

CC(=O)C1(C)CC=CCC1C(=O)O (stereo not drawn)
inactive: [13] 107 % of control | [14] 119 % of control | [15] 116 % of control | [16] 101 % of control | [17] 107 % of control | [18] 106 % of control

CSC(=S)N(C)C
inactive: [19] 90 % of control | dose: 50.0 mg/kg/injection, schedule: Q01DX009 (ip), vehicle: Klucel (hydroxypropylcellulose) (HPC) 108 % of control | dose: 100.0 mg/kg/injection, schedule: Q01DX009 (ip), vehicle: Klucel (hydroxypropylcellulose) (HPC) 97 % of control and 102 % of control | [9] 100 % of control | [10] 93 % of control

O=C(O)C(Cc1cnc[nH]1)Nc1nc(NC(Cc2cnc[nH]2)C(=O)O)[nH]c(=O)n1 (stereo not drawn)
inactive: dose: 6.25 mg/kg/injection, schedule: Q01DX009 (ip), vehicle: Klucel (hydroxypropylcellulose) (HPC) 101 % of control | dose: 12.5 mg/kg/injection, schedule: Q01DX009 (ip), vehicle: Klucel (hydroxypropylcellulose) (HPC) 108 % of control | [19] 115 % of control

Cc1cc(Cl)c(Cl)cc1NC(=O)Nc1ccccc1F
inactive: [1] 89 % of control and 92 % of control | [2] 89 % of control | [3] 98 % of control and 90 % of control

C/C=C/C(=O)Nc1cccc(OC(=O)NC(C)CC)c1 (stereo not drawn)
inactive: [5] 98 % of control | [7] 87 % of control | [8] 93 % of control

CCOC(=O)C(CC(C)C)NC(=O)CCCCSc1ncnc2nc[nH]c12 (stereo not drawn)
inactive: dose: 25.0 mg/kg/injection, schedule: Q01DX009 (ip), vehicle: saline with Tween-80 110 % of control | dose: 25.0 mg/kg/injection, schedule: Q01DX009 (oral), vehicle: saline with Tween-80 100 % of control | dose: 50.0 mg/kg/injection, schedule: Q01DX009 (ip), vehicle: saline with Tween-80 112 % of control | dose: 50.0 mg/kg/injection, schedule: Q01DX009 (oral), vehicle: saline with Tween-80 92 % of control | [4] 100 % of control | dose: 100.0 mg/kg/injection, schedule: Q01DX009 (oral), vehicle: saline with Tween-80 100 % of control | [6] 98 % of control | dose: 200.0 mg/kg/injection, schedule: Q01DX009 (oral), vehicle: saline with Tween-80 98 % of control | dose: 400.0 mg/kg/injection, schedule: Q01DX009 (ip), vehicle: saline with Tween-80 115 % of control | dose: 400.0 mg/kg/injection, schedule: Q01DX009 (oral), vehicle: saline with Tween-80 107 % of control | dose: 800.0 mg/kg/injection, schedule: Q01DX009 (oral), vehicle: saline with Tween-80 111 % of control

CCCC(C)C(C#N)C(=O)OCC (stereo not drawn)
inactive: [5] 106 % of control | [7] 101 % of control | [8] 105 % of control

O=C(CCl)NCc1ccc([N+](=O)[O-])cc1
inactive: dose: 50.0 mg/kg/injection, schedule: Q01DX001 (ip), vehicle: Klucel (hydroxypropylcellulose) (HPC) 100 % of control | dose: 100.0 mg/kg/injection, schedule: Q01DX001 (ip), vehicle: Klucel (hydroxypropylcellulose) (HPC) 103 % of control | dose: 200.0 mg/kg/injection, schedule: Q01DX001 (ip), vehicle: Klucel (hydroxypropylcellulose) (HPC) 101 % of control

CCOc1ccc(=O)[nH]n1
inactive: [13] 93 % of control | [14] 105 % of control | [15] 93 % of control | [16] 101 % of control | [17] 95 % of control | [18] 115 % of control

— PubChem BioAssay AID248 (DTP/NCI, 2004)
